Measurements published in PubChem BioAssay (NCI).
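Results reflect a 48-hour exposure of cells in 96-well plates to compound at five concentrations. GI50 is the concentration that inhibits growth by half. Definition used: TGI = concentration required for complete inhibition of growth.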

Legend:
Test in all cases: NCI tumour cell line growth inhibition, 48 h
DMS 114 small cell lung = system: DMS 114 small cell lung
DMS 273 small cell lung = system: DMS 273 small cell lung
KM20L2 colon = system: KM20L2 colon
P388/ADR leukemia = system: P388/ADR leukemia
SN12K1 renal = system: SN12K1 renal
XF 498 CNS = system: XF 498 CNS
LXFL 529 NSCLC = system: LXFL 529 NSCLC
RXF-631 renal = system: RXF-631 renal

Molecule `CC1[C@@]2(O[C@@H]3C=C4C5CCC6Cc7nc8c(nc7C[C@@]6(C)C5C[C@H](O)[C@@]4(C)[C@]13O)CC1CCc3c(cc4c5c3C(O)C[C@H]5[C@@H](C)C3(O4)OC(C)(C)CC3O)[C@]1(C)C8)O[C@@](C)(CO)C[C@@H]2O` (some centres undefined) has a TGI (DMS 114 small cell lung) greater than 3.72 µM, a TGI (DMS 273 small cell lung) of 0.117 µM and a TGI (KM20L2 colon) greater than 3.72 µM. The TGI (P388/ADR leukemia) was greater than 3.72 µM, the TGI (SN12K1 renal) was 0.937 µM and the TGI (XF 498 CNS) was 0.248 µM.
Molecule `CCC1(O)C(=O)OCc2c1cc1n(c2=O)Cc2cc3cc4c(cc3nc2-1)OCO4` (centres undefined) has a TGI (DMS 114 small cell lung) of 0.0284 µM, a TGI (DMS 273 small cell lung) of 0.0151 µM and a TGI (KM20L2 colon) of 0.738 µM. For the same molecule, the GI50 (LXFL 529 NSCLC) was 0.128 µM, the TGI (LXFL 529 NSCLC) was 2.27 µM and the TGI (P388/ADR leukemia) was less than 0.0172 µM. The TGI (RXF-631 renal) was 1.13 µM, the TGI (SN12K1 renal) was 0.331 µM and the TGI (XF 498 CNS) was 0.225 µM.
`O=[N+]([O-])c1ccc(C[P+]2(c3ccccc3)CCCCC2)cc1` (tested in a mixture with another compound) was tested, and the TGI (DMS 114 small cell lung) was greater than 100 µM, the TGI (DMS 273 small cell lung) was greater than 100 µM and the TGI (LXFL 529 NSCLC) was greater than 100 µM. The TGI (RXF-631 renal) was greater than 100 µM and the TGI (XF 498 CNS) was greater than 100 µM.
In the case of `COc1ccc(C2CC(c3sc(Nc4ccc(C)cc4)nc3C)=NN2)cc1` (centres undefined), the TGI (DMS 114 small cell lung) is reported as 30 µM, the TGI (DMS 273 small cell lung) is reported as 38.5 µM and the TGI (KM20L2 colon) is reported as 31.3 µM. For the same molecule, the TGI (P388/ADR leukemia) was 24.3 µM, the TGI (SN12K1 renal) was 28.9 µM and the TGI (XF 498 CNS) was 36.7 µM.
With `COc1ccc2[nH]c3ccc4cc[n+](CCN5CCC(C6CCN(CC[n+]7ccc8ccc9[nH]c%10ccc(OC)cc%10c9c8c7)CC6)CC5)cc4c3c2c1` the TGI (DMS 114 small cell lung) was 4.08 µM, the TGI (DMS 273 small cell lung) was greater than 100 µM and the TGI (KM20L2 colon) was greater than 100 µM. For the same molecule, the TGI (P388/ADR leukemia) was greater than 100 µM, the TGI (SN12K1 renal) was greater than 52 µM and the TGI (XF 498 CNS) was greater than 75.9 µM.
`Cc1ccc(C(=O)Nc2ccc(S(=O)(=O)O)c3cc(S(=O)(=O)O)cc(S(=O)(=O)O)c23)cc1NC(=O)c1cccc(NC(=O)Nc2cccc(C(=O)Nc3cc(C(=O)Nc4ccc(S(=O)(=O)O)c5cc(S(=O)(=O)O)cc(S(=O)(=O)O)c45)ccc3C)c2)c1` gave a TGI (DMS 114 small cell lung) greater than 100 µM, a TGI (DMS 273 small cell lung) greater than 100 µM and a TGI (KM20L2 colon) greater than 100 µM. It also gave a TGI (LXFL 529 NSCLC) greater than 100 µM and a TGI (XF 498 CNS) of 90.5 µM.
`COc1cc(/C=C/c2ccc(OC)c(OC)c2)oc(=O)c1` gave a TGI (DMS 114 small cell lung) greater than 250 µM, a TGI (DMS 273 small cell lung) greater than 250 µM and a TGI (KM20L2 colon) greater than 250 µM. The TGI (P388/ADR leukemia) was greater than 250 µM, the TGI (SN12K1 renal) was greater than 250 µM and the TGI (XF 498 CNS) was greater than 250 µM.
In the case of `CN(C)CCNC(=O)c1cccc2c1C(=O)c1ccccc1C2=O`, the TGI (DMS 114 small cell lung) is reported as 32.8 µM, the TGI (DMS 273 small cell lung) is reported as 56.6 µM and the TGI (KM20L2 colon) is reported as 77 µM. The TGI (P388/ADR leukemia) was 48.4 µM, the TGI (SN12K1 renal) was greater than 100 µM and the TGI (XF 498 CNS) was greater than 100 µM.
